Data from PubChem BioAssay AID330 (DTP/NCI, 2004).
“And” between values parts separate entries of the source, which are not always exact repeats. Equal values may be shown once. Inconclusive results and toxic doses are left out. How the source made its calls: active means survival T/C of 150% or more; inactive means T/C below 125% in these data. Peptide text beside a SMILES is read from it. * marks the point of attachment. Boc = CC(C)(C)OC(=O)*; NHNH2 = NN*

System: P388 leukemia ip, CD2F1 mice, survival T/C
Assay: NCI In Vivo Anticancer Drug Screen. Data for tumor model P388 Leukemia (intraperitoneal) in CD2F1 (CDF1) mice
Conditions: endpoint: median survival time, higher = longer survival
Procedure, shortened: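 Mice carrying the transplanted tumor received test compound or vehicle. Survival was recorded in each group, and the value is the treated-group measurement divided by that of the vehicle-treated control group.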

[1] = dose: 100.0 mg/kg/injection, schedule: Q01DX009 (ip), vehicle: saline with Tween-80
[2] = dose: 100.0 mg/kg/injection, schedule: Q04DX003 (ip), vehicle: saline with Tween-80
[3] = dose: 200.0 mg/kg/injection, schedule: Q04DX003 (ip), vehicle: saline with Tween-80
[4] = dose: 400.0 mg/kg/injection, schedule: Q01DX009 (ip), vehicle: saline with Tween-80
[5] = dose: 400.0 mg/kg/injection, schedule: Q04DX003 (ip), vehicle: saline with Tween-80
[6] = dose: 50.0 mg/kg/injection, schedule: Q01DX005 (ip), vehicle: Klucel (hydroxypropylcellulose) (HPC)
[7] = dose: 100.0 mg/kg/injection, schedule: Q01DX005 (ip), vehicle: Klucel (hydroxypropylcellulose) (HPC)
[8] = dose: 200.0 mg/kg/injection, schedule: Q01DX005 (ip), vehicle: Klucel (hydroxypropylcellulose) (HPC)
[9] = dose: 100.0 mg/kg/injection, schedule: Q04DX002 (ip), vehicle: Klucel (hydroxypropylcellulose) (HPC)
[10] = dose: 200.0 mg/kg/injection, schedule: Q04DX002 (ip), vehicle: Klucel (hydroxypropylcellulose) (HPC)
[11] = dose: 400.0 mg/kg/injection, schedule: Q04DX002 (ip), vehicle: Klucel (hydroxypropylcellulose) (HPC)
[12] = dose: 50.0 mg/kg/injection, schedule: Q01DX009 (ip), vehicle: Klucel (hydroxypropylcellulose) (HPC)
[13] = dose: 100.0 mg/kg/injection, schedule: Q01DX009 (ip), vehicle: Klucel (hydroxypropylcellulose) (HPC)

Measured: T/C

CCOC(=O)C(C(=O)OCC)c1c[n+]([O-])c2ccccc2c1[N+](=O)[O-]
inactive: [1] 104 % of control | [2] 109 % of control | dose: 200.0 mg/kg/injection, schedule: Q01DX009 (ip), vehicle: saline with Tween-80 100 % of control | [3] 104 % of control | [4] 100 % of control | [5] 95 % of control

C#CCN1c2c(nc(N)[nH]c2=O)NCC1CNc1ccc(C(=O)NC(CCC(=O)O)C(=O)O)cc1 (stereo unspecified)
inactive: dose: 50.0 mg/kg/injection, schedule: Q01DX005 (ip), vehicle: alkali diluted with saline 105 % of control | dose: 100.0 mg/kg/injection, schedule: Q01DX005 (ip), vehicle: alkali diluted with saline 92 % of control | dose: 200.0 mg/kg/injection, schedule: Q01DX005 (ip), vehicle: alkali diluted with saline 105 % of control

CC(C)=CCc1c(O)ccc(C(=O)C2C(c3c(O)cc(-c4cc5ccc(O)cc5o4)cc3O)C=C(C)CC2c2ccc(O)cc2O)c1O (stereo unspecified)
inactive: dose: 3.75 mg/kg/injection, schedule: Q01DX005 (ip), vehicle: water 94 % of control | dose: 7.5 mg/kg/injection, schedule: Q01DX005 (ip), vehicle: water 103 % of control | dose: 15.0 mg/kg/injection, schedule: Q01DX005 (ip), vehicle: water 99 % of control | dose: 30.0 mg/kg/injection, schedule: Q01DX005 (ip), vehicle: water 110 % of control | dose: 60.0 mg/kg/injection, schedule: Q01DX005 (ip), vehicle: water 113 % of control

CN(C)Cc1nsc(N(C)C)n1
inactive: [6] 100 % of control | [7] 97 % of control | [8] 93 % of control

ClCC#CCCl
inactive: dose: 6.25 mg/kg/injection, schedule: Q01DX009 (ip), vehicle: saline with Tween-80 102 % of control | dose: 12.5 mg/kg/injection, schedule: Q01DX009 (ip), vehicle: saline with Tween-80 99 % of control

O=c1c2ccccc2nnn1OCc1ccccc1
inactive: dose: 12.5 mg/kg/injection, schedule: Q01DX009 (ip), vehicle: distilled water + Tween-80 100 % of control | dose: 25.0 mg/kg/injection, schedule: Q01DX009 (ip), vehicle: distilled water + Tween-80 103 % of control | dose: 50.0 mg/kg/injection, schedule: Q01DX009 (ip), vehicle: distilled water + Tween-80 97 % of control | dose: 100.0 mg/kg/injection, schedule: Q01DX009 (ip), vehicle: distilled water + Tween-80 101 % of control | dose: 200.0 mg/kg/injection, schedule: Q01DX009 (ip), vehicle: distilled water + Tween-80 103 % of control

CC1CCC(C(C)C)C(NC(=O)c2ccccn2)C1 (stereo unspecified)
inactive: [9] 101 % of control | [10] 90 % of control | [11] 97 % of control

C=CCN(CC=C)P(=O)(N(CC=C)CC=C)N(CC=C)CC=C
inactive: [6] 99 % of control | [7] 99 % of control

OC1COCC1O (stereo unspecified)
inactive: dose: 25.0 mg/kg/injection, schedule: Q01DX009 (ip), vehicle: Klucel (hydroxypropylcellulose) (HPC) 100 % of control | [12] 102 % of control | [13] 100 % of control

CCC(C)C(NC(=O)C(Cc1c[nH]c2ccccc12)NC(=O)OC(C)(C)C)C(=O)NN (stereo not drawn) (Boc-Trp-Ile-NHNH2; configuration not given here)
inactive: dose: 12.5 mg/kg/injection, schedule: Q01DX009 (ip), vehicle: other 97 % of control | dose: 25.0 mg/kg/injection, schedule: Q01DX009 (ip), vehicle: other 91 % of control | dose: 50.0 mg/kg/injection, schedule: Q01DX009 (ip), vehicle: other 87 % of control | dose: 100.0 mg/kg/injection, schedule: Q01DX009 (ip), vehicle: other 94 % of control | dose: 200.0 mg/kg/injection, schedule: Q01DX009 (ip), vehicle: other 100 % of control

C=C1C(=O)OC2/C=C(\C)C(O)/C=C\C(C)(O)CC(OC(=O)/C(C)=C/C)C12 (stereo unspecified)
inactive: dose: 10.0 mg/kg/injection, schedule: Q01DX009 (ip), vehicle: saline 114 % of control | dose: 20.0 mg/kg/injection, schedule: Q01DX009 (ip), vehicle: saline 101 % of control | dose: 40.0 mg/kg/injection, schedule: Q01DX009 (ip), vehicle: saline 108 % of control

C=C1C(=O)OC2C(OC(C)=O)C1C(OC(=O)C(C)CC)[C@]1(C)C(=O)C=C[C@H]1[C@@H]2C (stereo partly specified)
inactive: dose: 0.78 mg/kg/injection, schedule: Q01DX005 (ip), vehicle: Klucel (hydroxypropylcellulose) (HPC) 97 % of control | dose: 1.56 mg/kg/injection, schedule: Q01DX005 (ip), vehicle: Klucel (hydroxypropylcellulose) (HPC) 101 % of control and 113 % of control | dose: 3.12 mg/kg/injection, schedule: Q01DX005 (ip), vehicle: Klucel (hydroxypropylcellulose) (HPC) 111 % of control | dose: 6.25 mg/kg/injection, schedule: Q01DX005 (ip), vehicle: Klucel (hydroxypropylcellulose) (HPC) 116 % of control and 122 % of control | dose: 12.5 mg/kg/injection, schedule: Q01DX005 (ip), vehicle: Klucel (hydroxypropylcellulose) (HPC) 99 % of control and 102 % of control

CCCCCCCCCCCCNC(=O)C[n+]1cccc(C(=O)Nc2ccccc2)c1
inactive: dose: 3.0 mg/kg/injection, schedule: Q01DX009 (ip), vehicle: saline with Tween-80 100 % of control | dose: 6.0 mg/kg/injection, schedule: Q01DX009 (ip), vehicle: saline with Tween-80 104 % of control | dose: 12.0 mg/kg/injection, schedule: Q01DX009 (ip), vehicle: saline with Tween-80 95 % of control

Cn1nnc(/C(N)=N/N=C/c2ccccc2)n1
inactive: [12] 100 % of control | [13] 102 % of control | dose: 200.0 mg/kg/injection, schedule: Q01DX009 (ip), vehicle: Klucel (hydroxypropylcellulose) (HPC) 94 % of control

CN(C)C(=O)n1ccc(NC=O)n1
inactive: dose: 50.0 mg/kg/injection, schedule: Q01DX009 (ip), vehicle: saline 92 % of control | dose: 100.0 mg/kg/injection, schedule: Q01DX009 (ip), vehicle: saline 94 % of control | dose: 200.0 mg/kg/injection, schedule: Q01DX009 (ip), vehicle: saline 103 % of control

Cc1ccc(NS(=O)(=O)c2ccc([N+](=O)[O-])cc2)cc1
inactive: [1] 100 % of control | [2] 100 % of control | [3] 100 % of control | [4] 90 % of control | [5] 100 % of control

CN(C)c1ccc(N=C(C#N)c2ccc(Cl)cc2)cc1
inactive: dose: 50.0 mg/kg/injection, schedule: Q04DX003 (ip), vehicle: Klucel (hydroxypropylcellulose) (HPC) 99 % of control | dose: 100.0 mg/kg/injection, schedule: Q04DX003 (ip), vehicle: Klucel (hydroxypropylcellulose) (HPC) 96 % of control | dose: 200.0 mg/kg/injection, schedule: Q04DX003 (ip), vehicle: Klucel (hydroxypropylcellulose) (HPC) 103 % of control | dose: 400.0 mg/kg/injection, schedule: Q04DX003 (ip), vehicle: Klucel (hydroxypropylcellulose) (HPC) 96 % of control

CC1CC(c2ccccc2)(c2ccccc2)C(=O)C(C)N1C (stereo unspecified)
inactive: [6] 107 % of control | [7] 105 % of control | [8] 97 % of control

Nc1nc(-c2cccnc2)cc(-c2cc(-c3cccnc3)nc(N)n2)n1
inactive: dose: 60.0 mg/kg/injection, schedule: Q01DX005 (ip), vehicle: saline 96 % of control | dose: 120.0 mg/kg/injection, schedule: Q01DX005 (ip), vehicle: saline 100 % of control

COc1cc2c(cc1OC)C1c3cc(OC)c(OC)cc3CCN1CC2
inactive: dose: 3.13 mg/kg/injection, schedule: Q01DX009 (ip), vehicle: water 106 % of control | dose: 6.25 mg/kg/injection, schedule: Q01DX009 (ip), vehicle: water 106 % of control | dose: 12.5 mg/kg/injection, schedule: Q01DX009 (ip), vehicle: water 100 % of control | dose: 25.0 mg/kg/injection, schedule: Q01DX009 (ip), vehicle: water 107 % of control

O=S(=O)(Nc1ncccn1)c1ccc(NCc2c3ccccc3nc3ccccc23)cc1
inactive: dose: 12.5 mg/kg/injection, schedule: Q04DX002 (ip), vehicle: Klucel (hydroxypropylcellulose) (HPC) 96 % of control | dose: 25.0 mg/kg/injection, schedule: Q04DX002 (ip), vehicle: Klucel (hydroxypropylcellulose) (HPC) 99 % of control | dose: 50.0 mg/kg/injection, schedule: Q04DX002 (ip), vehicle: Klucel (hydroxypropylcellulose) (HPC) 87 % of control and 96 % of control | [9] 87 % of control and 90 % of control | [10] 96 % of control | [11] 91 % of control and 96 % of control

CCCCNC1=CC(=O)C(NCCCC)=CC1=O
inactive: [6] 100 % of control | [7] 101 % of control | [8] 98 % of control
